Data from patent US7872047B2, “Esters of long-chain alcohols and preparation thereof” (Eastman Chemical Company, priority 2008, dated 2011).

Test: Oxidative Stability Index (OSI) accelerated oxidation test in simple skin lipid model
Settings: for onset of lipid oxidation over the untreated control (antioxidant effect): 1% idebenone, 1% or 2% idebenone linoleate in SLMM, p<0.01; for Avg. OSI (stdev) Hours at 80° C.: air bubbled, induction period, triplicate; for Calculated OSI Hours at 35° C.: estimated for 35° C. (skin surface temperature) with instrument software
Source text: Oxidation of skin lipids can contribute to an aged appearance and other undesirable effects on skin condition. A simple skin lipid model (based on fatty acids found in skin) can be used to evaluate and predict the topical effectiveness of different compounds to inhibit skin lipid oxidation and improve the condition of skin (Narayanan, S.: Hunerbein, A.: Getie, M.; Jackel, A.; Neubert, R. H. Scavenging properties of metronidazole on free oxygen radicals in a skin lipid model system. J Pharm Pharmacol. 2007 August;59(8):1125-30).
Lipid oxidation can be measured by a number of analytical methods. An accelerated oxidation test such as the Oxidative Stability Index (OSI) is accepted as a method for determining both oxidative stability of lipids as well as antioxidant effectiveness (Bartee, S. D.; Kim, H. J.; Min, D. B. Effects of antioxidants on the oxidative stability of oils containing arachidonic, docosapentaaenoic and docosahexaenoic acids. J Amer Oil Chem Soc 2007 84: 363-68.; Official methods and recommended practices of the AOCS, 5th Edition, AOCS 1998).
In this example, the OSI method was used to assess the antioxidant activity of idebenone esters by measuring their ability to inhibit lipid oxidation in a mixture of fatty acids that are present in skin lipids. The composition of the simple skin lipid model tested is 74% linoleic acid; 21% oleic acid; 4% linolenic acid. The simple skin lipid model includes a large proportion of polyunsaturated and unsaturated fatty acids, which are prone to oxidation.
The untreated sample was composed of the simple skin lipid model (fatty acid mixture). The treated samples were prepared by dissolving the test materials in the simple skin lipid model at 1 or 2 wt % at room temperature. The treated and untreated lipid matrices were oxidized by heating the test solutions to 80° C. and bubbling air through the samples. The OSI (induction period in hours) was determined using an Oxidative Stability Instrument (Omnion, Inc. Rockville Md.) and the method of Bartee et al., 2007. Untreated and treated samples were tested in triplicate, and the average and standard deviation are included in Table 1. The OSI (induction period in hours) was also estimated for oxidation at 35° C. (simulating skin surface temperature) using the software supplied with the instrument.

CCCCC/C=C\C/C=C\CCCCCCCC(=O)OCCCCCCCCCCC1=C(C)C(=O)C(OC)=C(OC)C1=O [idebenone linoleate, Idebenone Linoleate]
onset of lipid oxidation over the untreated control (antioxidant effect): significantly delayed the onset of lipid oxidation
Avg. OSI (stdev) Hours at 80° C. (1 wt % test material in SLMM): 2.50 (0.54) Hours
Calculated OSI Hours at 35° C. (1 wt % test material in SLMM): 56.2 h
Avg. OSI (stdev) Hours at 80° C. (2 wt % test material in SLMM): 3.22 (0.67) Hours
Calculated OSI Hours at 35° C. (2 wt % test material in SLMM): 72.4 h

COC1=C(OC)C(=O)C(CCCCCCCCCCO)=C(C)C1=O [idebenone, Idebenone, reference compound]
onset of lipid oxidation over the untreated control (antioxidant effect): significantly delayed the onset of lipid oxidation
Avg. OSI (stdev) Hours at 80° C. (1 wt % test material in SLMM): 2.77 (0.14) Hours
Calculated OSI Hours at 35° C. (1 wt % test material in SLMM): 62.3 h
